# Reference: US7015196B1, “Basic monocyclic compounds having Nk2 antagonist action, processes for their preparation, and formulations containing them” (Menarini Ricerche S.p.A., priority 1999, dated 2006)
# What was measured:
# [1] = biological target: T1, human NK2 receptor (Homo sapiens, UniProt P21452); experiment: binding test, [125I]NKA competition on membranes of CHO cells transfected with the NK2 receptor of human ileum; details: CHO cell membranes, [125I]NKA 100 pM, 30 min, 20° C.
# T1 construct: expressed in transfected cells; host or cells: CHO cells (membranes)
# T1 sequence (P21452 1-398): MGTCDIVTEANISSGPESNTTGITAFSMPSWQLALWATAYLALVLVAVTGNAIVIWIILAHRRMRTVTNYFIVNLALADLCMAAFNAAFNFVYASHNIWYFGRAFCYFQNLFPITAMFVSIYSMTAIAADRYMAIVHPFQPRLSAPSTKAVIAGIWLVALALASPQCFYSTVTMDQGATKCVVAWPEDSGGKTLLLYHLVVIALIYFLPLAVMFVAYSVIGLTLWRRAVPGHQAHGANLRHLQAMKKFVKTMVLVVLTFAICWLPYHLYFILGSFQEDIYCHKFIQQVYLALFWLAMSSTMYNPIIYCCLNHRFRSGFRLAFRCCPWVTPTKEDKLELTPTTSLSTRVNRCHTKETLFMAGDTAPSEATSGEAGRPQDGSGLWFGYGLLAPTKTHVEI
# Description: (§1) The compounds described in the present invention act as antagonists to the NK2 receptor of tachykinins. The biological activity was evaluated in three in vitro functional tests, using rabbit pulmonary artery (RPA), hamster trachea (HT) and rat urinary bladder (RUB), according to the methods described by C. A. Maggi et al., Br. J. Pharmacol., 1990, 100, 588; P. D'Orleans-Juste et al., Eur. J. Pharmacol., 1986, 125, 37; and C. A. Maggi et al., J. Pharmacol. Exp. Ther., 1988, 246, 308. The affinity of the compounds for the human NK2 receptor was evaluated in a binding test using membranes of Chinese hamster ovary (CHO) cells transfected with the NK2 receptor of human ileum and the radioligand [^125I]NKA (Amersham, […] 2000 Ci/mmol) at the concentration of 100 pM in competition studies. The substances under examination were tested in a concentration range between 0.01 nM and […]. At the end of incubation (30 min, 20° C.) the test specimens were filtered, and radioactivity was determined using a gamma-counter.
# (§2) The data emerging from the functional studies were expressed as pA2 (O. Arunlakshana and H. O. Shild, Br. J. Pharmacol. Chemother., 1959, 14, 45), and the data emerging from the binding studies were expressed as pKi (log Ki calculated with the LIGAND program; P. J. Munson et al., Anal. Biochem., 1980, 107, 220).
# [2] = biological target: T2, NK2 receptor of tachykinins (Rattus norvegicus, UniProt P16610); experiment: in vitro functional test, rat urinary bladder (RUB); format: cell-based; details: for Kb: read-out: pA2 RUB (converted)
# T2 construct: from tissue; host or cells: rat urinary bladder
# T2 sequence (P16610 1-390): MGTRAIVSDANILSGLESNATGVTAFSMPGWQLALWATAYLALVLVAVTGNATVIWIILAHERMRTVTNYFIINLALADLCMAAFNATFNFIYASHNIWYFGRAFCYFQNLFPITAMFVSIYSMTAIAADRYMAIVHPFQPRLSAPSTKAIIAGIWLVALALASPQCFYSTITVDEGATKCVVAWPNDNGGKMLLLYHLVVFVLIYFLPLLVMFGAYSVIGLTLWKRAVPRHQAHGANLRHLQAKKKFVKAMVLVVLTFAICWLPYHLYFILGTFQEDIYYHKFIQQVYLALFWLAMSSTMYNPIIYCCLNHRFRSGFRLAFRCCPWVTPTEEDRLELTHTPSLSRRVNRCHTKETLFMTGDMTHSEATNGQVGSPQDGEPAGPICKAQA
# Description: as §1, §2
# [3] = biological target: T3, NK2 receptor of tachykinins (Oryctolagus cuniculus, UniProt P79218); experiment: in vitro functional test, rabbit pulmonary artery (RPA); format: cell-based; details: read-out: pA2 RPA (converted)
# T3 construct: from tissue; host or cells: rabbit pulmonary artery
# T3 sequence (P79218 1-384): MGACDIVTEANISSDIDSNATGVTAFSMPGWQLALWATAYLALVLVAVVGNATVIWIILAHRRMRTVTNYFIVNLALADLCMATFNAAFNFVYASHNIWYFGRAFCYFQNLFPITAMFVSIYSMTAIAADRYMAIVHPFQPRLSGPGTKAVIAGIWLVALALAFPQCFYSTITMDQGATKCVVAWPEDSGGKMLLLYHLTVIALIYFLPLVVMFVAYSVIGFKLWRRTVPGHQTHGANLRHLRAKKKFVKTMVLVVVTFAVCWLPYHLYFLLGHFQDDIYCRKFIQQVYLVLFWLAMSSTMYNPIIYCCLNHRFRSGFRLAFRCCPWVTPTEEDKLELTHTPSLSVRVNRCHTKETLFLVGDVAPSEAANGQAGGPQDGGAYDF
# Description: as §1, §2
# [4] = biological target: T4, NK2 receptor of tachykinins (Mesocricetus auratus, UniProt P51144); experiment: in vitro functional test, hamster trachea (HT); format: cell-based; details: read-out: pA2 HT (converted)
# T4 construct: from tissue; host or cells: hamster trachea
# T4 sequence (P51144 1-384): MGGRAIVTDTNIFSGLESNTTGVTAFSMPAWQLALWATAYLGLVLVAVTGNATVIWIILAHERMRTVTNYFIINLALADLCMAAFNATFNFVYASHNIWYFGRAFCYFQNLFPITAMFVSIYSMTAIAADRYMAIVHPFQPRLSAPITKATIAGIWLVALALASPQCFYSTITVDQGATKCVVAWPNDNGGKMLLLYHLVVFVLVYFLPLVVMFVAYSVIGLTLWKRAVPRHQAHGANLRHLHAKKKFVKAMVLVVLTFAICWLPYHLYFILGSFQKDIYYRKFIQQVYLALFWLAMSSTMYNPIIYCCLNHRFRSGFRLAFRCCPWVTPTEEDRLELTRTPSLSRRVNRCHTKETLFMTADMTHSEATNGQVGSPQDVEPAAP
# Description: as §1, §2
smiles,measurement,setting,value
"O=C1CC(C(=O)N2CCC(N3CCCCC3)CC2)C(=O)NCC(Cc2ccccc2)NC(=O)C(Cc2ccccc2)NC(=O)C(Cc2c[nH]c3ccccc23)N1 (single isomer, unassigned) [Example 7, cyclo{-Suc[1-(R or S)-(1,4′)-bipiperidinyl-1′-carbonyl]-Trp-Phe[(R)—NH—CH(CH2—C6H5)—CH2NH]-}]",Ki,[1],50.1 pM
same,Kb,[2],794 pM
"O=C1CC(C(=O)N2CCC(N3CCCCC3)CC2)C(=O)NCC(Cc2ccccc2)NC(=O)C(Cc2ccccc2)NC(=O)C(Cc2c[nH]c3ccccc23)N1 (single isomer, unassigned) [Example 8, cyclo{-Suc[1-(S or R)-(1,4′)-bipiperidinyl-1′-carbonyl]-Trp-Phe[(R)—NH—CH(CH2—C6H5)—CH2NH]-}]",Ki,[1],316 pM
"O=C1C[C@@H](NC(=O)CN2CCC(N3CCCCC3)CC2)C(=O)NC[C@@H](Cc2ccccc2)NC(=O)[C@H](Cc2ccccc2)NC(=O)[C@H](Cc2c[nH]c3ccccc23)N1 [Example 1, cyclo{-Suc[1-(R)-2(1,4′)-bipiperidinyl-1′-yl-acetyl amino]-Trp-Phe-[(R)—NH—CH(CH2—C6H5)—CH2NH]-}]",Kb,[3],2000 pM
same,pKi,[1],9.4
same,Kb,[4],1580 pM
same,Kb,[2],631 pM
"O=C1C[C@@H](NC(=O)CN2CCC(N3CCOCC3)CC2)C(=O)NC[C@@H](Cc2ccccc2)NC(=O)[C@H](Cc2ccccc2)NC(=O)[C@H](Cc2c[nH]c3ccccc23)N1 [Example 2, cyclo{-Suc[1-(R)-2(4-morpholin-4-yl-piperidin-1-yl)-acetyl amino]-Trp-Phe-[(R)—NH—CH(CH2—C6H5)—CH2NH]-}]",Ki,[1],200 pM
same,Kb,[2],158 pM
"O=C1C[C@@H](NC(=O)CN2CCC(N3CCCCC3)CC2)C(=O)NC(Cc2c[nH]c3ccccc23)C(=O)NC(Cc2ccc(F)cc2)C(=O)N[C@H](Cc2ccccc2)CN1 (stereo partly drawn) [Example 3, cyclo{-Suc[1-(R)-2(1,4′)-bipiperidinyl-1′-yl-acetyl amino]-Trp-Phe-(4-F)-[(R)—NH—CH(CH2—C6H5)—CH2NH]-}]",pKi,[1],9.6
same,pA2 RUB,[2],9.3
"O=C1C[C@@H](NC(=O)CN2CCC(N3CCOCC3)CC2)C(=O)NC(Cc2c[nH]c3ccc(F)cc23)C(=O)NC(Cc2ccccc2)C(=O)N[C@H](Cc2ccccc2)CN1 (stereo partly drawn) [Example 4, cyclo{-Suc[1-(R)-2(4-morpholinyl-4-piperidinyl-1-yl-acetyl)amino]-Trp-(5-F)-Phe-[(R)-N H—CH(CH2—C6H5)—CH2NH]-}]",pKi,[1],10.1
same,pA2 RUB,[2],9.7
